Data reported in ChEMBL document CHEMBL3992567, “Discovery of Highly Potent 2-Sulfonyl-Pyrimidinyl Derivatives for Apoptosis Inhibition and Ischemia Treatment” (ACS Med Chem Lett, 2017).
Activity calls are given as the source filed them. No cut-off for these calls is given here. Residues, ends and D or L forms follow the SMILES beside them.

Experiments:
U2OS [1] = experiment: Inhibition of mitochondrial-mediated apoptosis in human U2OS cells assessed as reduction in mitochondrial membrane potential loss at 1 uM preincubated for 1 hr followed by doxycyclin addition measured after 4 hrs by TMRM dye based confocal microscopic method; format: functional, cell-based
U2OS [2] = experiment: Inhibition of mitochondrial-mediated apoptosis in human U2OS cells assessed as reduction in ROS level preincubated for 2 hrs followed by doxycyclin addition measured after 4 hrs by DCFH-DA dye based fluorescence assay; format: functional, cell-based
[3] = molecular target: T1, Succinate dehydrogenase [ubiquinone] iron-sulfur subunit, mitochondrial (Homo sapiens) (UniProt P21912); experiment: Irreversible inhibition of SDHB in human U2OS cells over-expressing Bim assessed as inhibition of apoptosis preincubated for 1 hr followed by compound washout and doxycyclin addition to induce Bim protein expression measured after 24 hrs by Cell Titer-Glo assay; format: cell-based
T1 sequence (whole entry): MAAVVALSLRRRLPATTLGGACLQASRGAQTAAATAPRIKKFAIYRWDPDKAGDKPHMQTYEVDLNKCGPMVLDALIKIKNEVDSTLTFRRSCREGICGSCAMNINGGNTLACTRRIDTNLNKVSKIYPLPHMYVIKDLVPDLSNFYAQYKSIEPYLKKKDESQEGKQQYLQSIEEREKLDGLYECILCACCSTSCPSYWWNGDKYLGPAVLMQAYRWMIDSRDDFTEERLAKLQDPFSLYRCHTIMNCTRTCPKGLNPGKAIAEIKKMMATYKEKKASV

Rattus norvegicus [4] = organism: Rattus norvegicus; experiment: Protection against middle cerebral artery occlusion-induced transient focal cerebral ischemia in Sprague-Dawley rat assessed as reduction in brain infarct volume at 50 to 200 uM pretreated for 1 hr followed by reperfusion measured 24 hrs post MCAO by TTC staining based assay; format: functional
[5] = Cysteine reactivity of the compound at 20 uM after 2 hrs by UPLC analysis
[6] = Glutathione reactivity of the compound at 20 uM after 2 hrs by UPLC analysis
[7] = Lysine reactivity of the compound at 20 uM after 2 hrs by UPLC analysis
U2OS [8] = experiment: Inhibition of mitochondrial-mediated apoptosis in human U2OS cells assessed as reduction in mitochondrial membrane potential loss at 3 nM preincubated for 1 hr followed by doxycyclin addition measured after 4 hrs by TMRM dye based confocal microscopic method; format: functional, cell-based
[9] = Glutathione reactivity of the compound in PBS buffer at 100 nM up to 35 mins by LC-MS/Ms analysis
U2OS [10] = experiment: Inhibition of apoptosis in human U2OS cells over-expressing Bim assessed as mitochondrial cytochrome c release at 10 uM after 1 hr in presence of doxycyclin by confocal microscopic method; format: functional, cell-based
Rattus norvegicus [11] = organism: Rattus norvegicus; experiment: Protection against middle cerebral artery occlusion-induced transient focal cerebral ischemia in Sprague-Dawley rat assessed as reduction in brain infarct volume at 10 to 200 uM pretreated for 1 hr followed by reperfusion measured 24 hrs post MCAO by TTC staining based assay; format: functional
U2OS [12] = experiment: Inhibition of mitochondrial-mediated apoptosis in human U2OS cells assessed as reduction in mitochondrial membrane potential loss at 100 nM preincubated for 1 hr followed by doxycyclin addition measured after 4 hrs by TMRM dye based confocal microscopic method; format: functional, cell-based
U2OS [13] = experiment: Inhibition of mitochondrial-mediated apoptosis in human U2OS cells assessed as reduction in mitochondrial membrane potential loss at 10 uM preincubated for 1 hr followed by doxycyclin addition measured after 4 hrs by TMRM dye based confocal microscopic method; format: functional, cell-based
U2OS [14] = experiment: Inhibition of apoptosis in human U2OS cells over-expressing Bim assessed as mitochondrial cytochrome c release at 20 uM after 1 hr in presence of doxycyclin by confocal microscopic method; format: functional, cell-based

CS(=O)(=O)c1nc(-c2ccc(=O)n(Cc3ccc(Cl)cc3)c2)cc(C(F)(F)F)n1
inhibition (U2OS [1]): Active
inhibition (U2OS [2]): Active
inhibition [3]: Active

COc1ccc(Cn2cc(-c3cc(C(F)(F)F)nc(S(C)(=O)=O)n3)ccc2=O)cc1
inhibition [3]: Active

COc1ccc(Cn2cc(-c3cc(C(F)(F)F)nc(S(=O)(=O)CCCC(=O)NC45CC6CC(CC(C6)C4)C5)n3)ccc2=O)cc1OC
Activity (Rattus norvegicus [4]): Active
Activity [5]: Active
Activity [6]: Active
Activity [7]: inactive
inhibition (U2OS [8]): Active
inhibition [3]: Active
Activity [9]: Active

Cc1ccc(O)c(NC(=O)CCCS(=O)(=O)c2nc(-c3cccs3)cc(C(F)(F)F)n2)c1
inhibition (U2OS [10]): Active

CS(=O)(=O)c1nc(-c2ccc(=O)n(Cc3ccccc3Cl)c2)cc(C(F)(F)F)n1
inhibition [3]: Active

COc1ccc(Cn2cc(-c3cc(C(F)(F)F)nc(S(C)(=O)=O)n3)ccc2=O)cc1OC
Activity [5]: Active
Activity [6]: Active
Activity (Rattus norvegicus [11]): Active
Activity [7]: inactive
inhibition (U2OS [2]): Active
inhibition [3]: Active
inhibition (U2OS [12]): Active
Activity [9]: Active

COc1cccc(Cn2cc(-c3cc(C(F)(F)F)nc(S(C)(=O)=O)n3)ccc2=O)c1
inhibition (U2OS [2]): Active
inhibition [3]: Active

CS(=O)(=O)c1nc(-c2cccs2)cc(C(F)(F)F)n1
Activity [5]: Active
Activity [6]: Active
Activity [7]: inactive
inhibition [3]: Active

CCOC(=O)CCS(=O)(=O)c1nc(-c2cccs2)cc(C(F)(F)F)n1
inhibition [3]: Active

CS(=O)(=O)c1nc(-c2ccccc2)cc(C(F)(F)F)n1
inhibition [3]: Active

CS(=O)(=O)c1nc(-c2ccc(=O)n(Cc3ccccc3)c2)cc(C(F)(F)F)n1
inhibition (U2OS [13]): Active
inhibition (U2OS [2]): Active
inhibition [3]: Active

CC(C)[C@H](NC(=O)OCc1ccccc1)C(=O)N[C@@H](C)C(=O)N[C@@H](CC(=O)O)C(=O)O (HELM PEPTIDE1{[O=C(OCc1ccccc1)[*:2]].V.A.D}$$$$V2.0)
inhibition (U2OS [14]): inactive
inhibition (U2OS [13]): inactive

CS(=O)(=O)c1nc(-c2ccc(=O)n(Cc3cccc(Cl)c3)c2)cc(C(F)(F)F)n1
inhibition (U2OS [1]): Active
inhibition (U2OS [2]): Active
inhibition [3]: Active

CCCOc1cccc(Cn2cc(-c3cc(C(F)(F)F)nc(S(C)(=O)=O)n3)ccc2=O)c1
inhibition (U2OS [2]): Active
inhibition [3]: Active

Cc1cc(-c2cccs2)nc(S(C)(=O)=O)n1
Activity [5]: inactive
Activity [6]: inactive
Activity [7]: inactive
